Patent publication EP4806894A1, “TNAP INHIBITORY COMPOUND AND USE THEREOF” (Rednvia Co., Ltd., priority 2023, dated 2025)

Columns and labels:
TNAP = target: T1, TNAP (Homo sapiens, UniProt P05186); experiment: TNAP inhibitory activity, colorimetric assay (alkaline phosphatase assay kit ab83369, pNPP substrate); assay type: biochemical; conditions: TNAP enzyme, 2 hours at room temperature, absorbance 405 nm
T1 sequence (P05186 18-502 limits assumed): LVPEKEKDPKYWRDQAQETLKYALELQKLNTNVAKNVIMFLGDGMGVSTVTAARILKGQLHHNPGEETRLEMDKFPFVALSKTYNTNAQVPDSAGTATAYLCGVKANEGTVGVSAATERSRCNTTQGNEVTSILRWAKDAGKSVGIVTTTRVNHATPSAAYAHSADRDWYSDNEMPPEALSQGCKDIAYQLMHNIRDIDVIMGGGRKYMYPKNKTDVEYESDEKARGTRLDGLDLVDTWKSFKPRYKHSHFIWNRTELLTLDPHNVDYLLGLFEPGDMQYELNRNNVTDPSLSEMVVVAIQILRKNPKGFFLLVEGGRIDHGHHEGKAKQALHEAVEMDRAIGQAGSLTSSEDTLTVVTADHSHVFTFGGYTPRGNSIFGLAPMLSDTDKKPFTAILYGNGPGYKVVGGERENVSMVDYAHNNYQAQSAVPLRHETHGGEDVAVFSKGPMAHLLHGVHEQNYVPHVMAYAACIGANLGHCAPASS

saos-2 cells = experiment: Anticalcification efficacy in saos-2 cells (osteogenic medium, Alizarin Red staining); assay type: cell-based; conditions: Homo sapiens, 168 h, test compound 1 µM, 7 days osteogenic medium, Alizarin Red absorbance 540 nm, read-out: calcification inhibition
In short: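 Saos-2 cells at 80–90% confluence induced for 7 days in osteogenic medium (DMEM, 100 nM dexamethasone, 10 mM β-glycerophosphate, 0.05 mM ascorbic acid), compound (0.5, 1, 5, 10 […]) added with each medium change. Alizarin Red staining eluted with cetylpyridinium chloride, A540 read; inhibition taken against OM-only absorbance.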

| Structure (SMILES) | IC50 (TNAP) [nM] | inhibition at 1 µM (saos-2 cells) [%] |
| --- | --- | --- |
| CCOC(=O)N1CCc2ncc(NS(=O)(=O)c3cc(Br)ccc3OC)cc2C1 [Example 97, ethyl3-((5-bromo-2-methoxyphenyl)sulfonamido)-7,8-dihydro-1,6-naphthyridine-6(5H)-carboxylate] | 100 to 1000 | ≥ 50 |
| COc1ccc(Cl)cc1S(=O)(=O)Nc1cnc2c(c1)CN(C(=O)OCC(C)(C)C)CC2 [Example 98, neopentyl3-((5-chloro-2-methoxyphenyl)sulfonamido)-7,8-dihydro-1,6-naphthyridine-6(5H)-carboxylate] | 100 to 1000 | ≥ 50 |
| COc1ccc(Br)cc1S(=O)(=O)Nc1cnc2c(c1)CN(C(=O)OCC(C)(C)C)CC2 [Example 99, neopentyl3-((5-bromo-2-methoxyphenyl)sulfonamido)-7,8-dihydro-1,6-naphthyridine-6(5H)-carboxylate] | 100 to 1000 | < 0 |
| COc1ccc(OC)c(S(=O)(=O)Nc2cnc3c(c2)CN(C(=O)OCC(C)(C)C)CC3)c1 [Example 100, neopentyl3-((5-methoxy-2-methoxyphenyl)sulfonamido)-7,8-dihydro-1,6-naphthyridine-6(5H)-carboxylate] | 100 to 1000 | ≥ 50 |
| COc1ccc(Cl)cc1S(=O)(=O)Nc1cnc2c(c1)CN(C(=O)OCCF)CC2 [Example 101, 2-fluoroethyl-3-((5-chloro-2-methoxyphenyl)sulfonamido)-7,8-dihydro-1,6-naphthyridine-6(5H)-carboxylate] | 10 to 100 | < 0 |
| COc1ccc(Br)cc1S(=O)(=O)Nc1cnc2c(c1)CN(C(=O)OCCF)CC2 [Example 102, 2-fluoroethyl3-((5-bromo-2-methoxyphenyl)sulfonamido)-7,8-dihydro-1,6-naphthyridine-6(5H)-carboxylate] | 10 to 100 | ≥ 50 |
| COc1ccc(OC)c(S(=O)(=O)Nc2cnc3c(c2)CN(C(=O)OCCF)CC3)c1 [Example 103, 2-fluoroethyl-3-((5-methoxy-2-methoxyphenyl)sulfonamido)-7,8-dihydro-1,6-naphthyridine-6(5H)-carboxylate] | 10 to 100 | ≥ 50 |
| COc1ccc(Cl)cc1S(=O)(=O)Nc1cnc2c(c1)CN(C(=O)NC(C)C)CC2 [Example 104, 3-((5-chloro-2-methoxyphenyl)sulfonamido)-N-isopropyl-7,8-dihydro-1,6-naphthyridine-6(5H)-carboxamide] | 10 to 100 | ≥ 50 |
| COc1ccc(F)cc1S(=O)(=O)Nc1cnc2c(c1)CN(C(=O)NC(C)C)CC2 [Example 105, 3-((5-fluoro-2-methoxyphenyl)sulfonamido)-N-isopropyl-7,8-dihydro-1,6-naphthyridine-6(5H)-carboxamide] | 10 to 100 | ≥ 50 |
| CNC(=O)N1CCc2ncc(NS(=O)(=O)c3cc(Br)ccc3OC)cc2C1 [Example 111, 3-((5-bromo-2-methoxyphenyl)sulfonamido)-N-methyl-7,8-dihydro-1,6-naphthyridine-6(5H)-carboxamide] | 10 to 100 | ≥ 50 |
| COc1ccc(Br)cc1S(=O)(=O)Nc1cnc2c(c1)CN(C(C)C)CC2 [Example 113, 5-bromo-N-(6-isopropyl-5,6,7,8-tetrahydro-1,6-naphthyridine-3-yl)-2-methoxybenzenesulfonamide] | 100 to 1000 | < 0 |
| COc1ccc(Br)cc1S(=O)(=O)Nc1cnc2c(c1)CN(C(=O)CC(C)(C)C)CC2 [Example 119, 5-bromo-N-(6-(3,3-dimethylbutanoyl)-5,6,7,8-tetrahydro-1,6-naphthyridine-3-yl)-2-methoxybenzenesulfonamide] | 10 to 100 | ≥ 50 |

The next lines start with results.

| IC50 (TNAP) [nM] | Structure (SMILES) | inhibition at 1 µM (saos-2 cells) [%] |
| --- | --- | --- |
| 100 to 1000 | CCCCCNC(=O)N1CCc2ncc(NS(=O)(=O)c3cc(Cl)ccc3OC)cc2C1 [Example 106, 3-((5-chloro-2-methoxyphenyl)sulfonamido)-N-pentyl-7,8-dihydro-1,6-naphthyridine-6(5H)-carboxamide] | ≥ 50 |
| 10 to 100 | COc1ccc(Cl)cc1S(=O)(=O)Nc1cnc2c(c1)CN(C(=O)NCC(F)F)CC2 [Example 107, 3-((5-chloro-2-methoxyphenyl)sulfonamido)-N-(2,2-difluoroethyl)-7,8-dihydro-1,6-naphthyridine-6(5H)-carboxamide] | ≥ 50 |
| 10 to 100 | COc1ccc(Br)cc1S(=O)(=O)Nc1cnc2c(c1)CN(C(=O)NCC(F)F)CC2 [Example 108, 3-((5-bromo-2-methoxyphenyl)sulfonamido)-N-(2,2-difluoroethyl)-7,8-dihydro-1,6-naphthyridine-6(5H)-carboxamide] | ≥ 50 |
| 10 to 100 | COc1ccc(Cl)cc1S(=O)(=O)Nc1cnc2c(c1)CN(C(=O)N1CCOCC1)CC2 [Example 109, 5-chloro-2-methoxy-N-(6-(morpholine-4-carbonyl)-5,6,7,8-tetrahydro-1,6-naphthyridine-3-yl)benzenesulfonamide] | ≥ 50 |
| 10 to 100 | COc1ccc(Br)cc1S(=O)(=O)Nc1cnc2c(c1)CN(C(=O)N1CCOCC1)CC2 [Example 110, 5-bromo-2-methoxy-N-(6-(morpholine-4-carbonyl)-5,6,7,8-tetrahydro-1,6-naphthyridine-3-yl)benzenesulfonamide] | ≥ 50 |
| 100 to 1000 | COc1ccc(Cl)cc1S(=O)(=O)Nc1cnc2c(c1)CN(C(C)C)CC2 [Example 112, 5-chloro-N-(6-isopropyl-5,6,7,8-tetrahydro-1,6-naphthyridine-3-yl)-2-methoxybenzenesulfonamide] | < 0 |
| 10 to 100 | COc1ccc(Cl)cc1S(=O)(=O)Nc1cnc2c(c1)CN(c1ncccn1)CC2 [Example 114, 3-5-chloro-2-methoxy-N-(6-(pyrimidine-2-yl)-5,6,7,8-tetrahydro-1,6-naphthyridine-3-yl)benzenesulfonamide] | ≥ 50 |
| 10 to 100 | COc1ccc(Cl)cc1S(=O)(=O)Nc1cnc2c(c1)CN(C(=O)Nc1ccccc1)CC2 [Example 115, 3-((5-chloro-2-methoxyphenyl)sulfonamido)-N-phenyl-7,8-dihydro-1,6-naphthyridine-6(5H)-carboxamide] | ≥ 50 |
| 10 to 100 | COc1ccc(Cl)cc1S(=O)(=O)Nc1cnc2c(c1)CN(C(=O)NCC1CC1)CC2 [Example 116, 3-((5-chloro-2-methoxyphenyl)sulfonamido)-N-(cyclopropylmethyl)-7,8-dihydro-1,6-naphthyridine-6(5H)-carboxamide] | ≥ 50 |
| 10 to 100 | COc1ccc(Cl)cc1S(=O)(=O)Nc1cnc2c(c1)CN(C(=O)NCCF)CC2 [Example 117, 3-((5-chloro-2-methoxyphenyl)sulfonamido)-N-(2-fluoroethyl)-7,8-dihydro-1,6-naphthyridine-6(5H)-carboxamide] | ≥ 50 |
| 10 to 100 | COc1ccc(Cl)cc1S(=O)(=O)Nc1cnc2c(c1)CN(C(=O)CC(C)(C)C)CC2 [Example 118, 5-chloro-N-(6-(3,3-dimethylbutanoyl)-5,6,7,8-tetrahydro-1,6-naphthyridine-3-yl)-2-methoxybenzenesulfonamide] | ≥ 50 |
| 100 to 1000 | COc1ccc(-c2cnn(-c3ccncc3)c2)cc1S(=O)(=O)Nc1cnc2c(c1)C(=O)NCC2 [Example 120, 2-methoxy-N-(5-oxo-5,6,7,8-tetrahydro-1,6-naphthyridine-3-yl)-5-(1-(pyridine-4-yl)-1H-pyrazole-4-yl)benzenesulfonamide] | < 0 |
| 100 to 1000 | COc1ccc(-c2c(C)nn(C)c2C)cc1S(=O)(=O)Nc1cnc2c(c1)C(=O)NCC2 [Example 121, 2-methoxy-N-(5-oxo-5,6,7,8-tetrahydro-1,6-naphthyridine-3-yl)-5-(1,3,5-trimethyl-1H-pyrazole-4-yl)benzenesulfonamide] | < 0 |
| 10 to 100 | COc1ccc(-c2cnn(C(C)(C)C)c2)cc1S(=O)(=O)Nc1cnc2c(c1)C(=O)NCC2 [Example 122, 5-(1-(tert-butyl)-1H-pyrazole-4-yl)-2-methoxy-N-(5-oxo-5,6,7,8-tetrahydro-1,6-naphthyridine-3-yl)benzenesulfonamide] | < 0 |
| 10 to 100 | CCCCn1cc(-c2ccc(OC)c(S(=O)(=O)Nc3cnc4c(c3)C(=O)NCC4)c2)cn1 [Example 123, 5-(1-butyl-1H-pyrazole-4-yl)-2-methoxy-N-(5-oxo-5,6,7,8-tetrahydro-1,6-naphthyridine-3-yl)benzenesulfonamide] | ≥ 50 |
| 100 to 1000 | COc1ccc(-c2cnn(-c3ccccc3)c2)cc1S(=O)(=O)Nc1cnc2c(c1)C(=O)NCC2 [Example 124, 2-methoxy-N-(5-oxo-5,6,7,8-tetrahydro-1,6-naphthyridine-3-yl)-5-(1-phenyl-1H-pyrazole-4-yl)benzenesulfonamide] | < 0 |
